In paper PMC9179341, “Design of New Potent and Selective Thiophene-Based KV1.3 Inhibitors and Their Potential for Anticancer Activity” (Cancers, 2022):

biological target: T1, KV1.3 (Homo sapiens, UniProt P22001); experiment: KV1.3 inhibition, HiClamp on Xenopus laevis oocytes; assay type: cell-based; conditions: Xenopus laevis oocytes (marked * in Table 2)
Procedure: (§1) Stage V–VI oocytes were isolated by partial ovariectomy from Xenopus laevis frogs (African clawed frogs). […] After anaesthetizing the frogs by a 15-min submersion in 0.1% tricaine methanesulfonate (amino benzoic acid ethyl ester; Merck, Kenilworth, NJ, USA), pH 7.0, the oocytes were collected. The isolated oocytes were then washed with a 1.5 mg/mL collagenase solution for 2 h to remove the follicle layer.
(§2) Ion channels (Kv1.x, Kv2.1, Kv4.2, Kv10.1) were expressed in Xenopus laevis oocytes by linearization of the plasmids and subsequent in vitro transcription using a commercial T7 or SP6 mMESSAGE mMACHINE transcription kit (Ambion, Carlsbad, California, USA). Defolliculated Xenopus oocytes were then injected with 20–50 nL of the cRNA at a concentration of 1 ng/nL using a micro-injector (Drummond Scientific1, Broomall, PA, USA). The oocytes were incubated in a solution containing (in mM): NaCl, 96; KCl, 2; CaCl2, 1.8; MgCl2, 2 and HEPES, 5 (pH 7.5), supplemented with 50 mg/L gentamycin sulfate and 90 mg/L theophylline.
(§3) Two-electrode voltage-clamp recordings were performed at room temperature (18–22 °C) using a Geneclamp 500 amplifier (Molecular Devices, San Jose, CA, USA) and pClamp data acquisition (Axon Instruments, Union City, CA, USA) and using an integrated digital TEVC amplifier controlled by HiClamp, an automated Voltage-Clamp Screening System (Multi Channel Systems MCS GmbH, Reutlingen, Germany). Whole-cell currents from oocytes were recorded 1–4 days after injection. The bath solution composition was ND96 (in mM): NaCl, 96; KCl, 2; CaCl2, 1.8; MgCl2, 2 and HEPES, 5 (pH 7.5). Voltage and current electrodes were filled with a 3 M solution of KCl in H2O. […] The elicited Kv1.x, Kv2.1, Kv4.2 and Kv10.1 currents were filtered at 0.5 kHz and sampled at 2 kHz using a four-pole low-pass Bessel filter. Leak subtraction was performed using a P/4 protocol.
(§4) For the electrophysiological analysis of the compounds, a number of protocols were applied from a holding potential of −90 mV. Currents for Kv1.x, Kv2.1, Kv4.2 and Kv10.1 were evoked by 1 s depolarizing pulses either to 0 mV or to a range of voltage steps between −80 mV and +40 mV. For the analysis of the data, only the inhibition at the 0 mV step was used. The concentration dependency of all compounds was assessed by measuring the current inhibition in the presence of increasing compound concentrations. […] From this stock solution, adequate dilutions with a maximum of 0.5% DMSO were made for testing.
(§5) All electrophysiological data (Figure S1) are presented as means ± S.E.M of n ≥ three independent experiments unless otherwise indicated. […] The Dunnett test and one-way ANOVA were performed to calculate the significance of the induced inhibition compared to the control.

T1 sequence (P22001 whole entry): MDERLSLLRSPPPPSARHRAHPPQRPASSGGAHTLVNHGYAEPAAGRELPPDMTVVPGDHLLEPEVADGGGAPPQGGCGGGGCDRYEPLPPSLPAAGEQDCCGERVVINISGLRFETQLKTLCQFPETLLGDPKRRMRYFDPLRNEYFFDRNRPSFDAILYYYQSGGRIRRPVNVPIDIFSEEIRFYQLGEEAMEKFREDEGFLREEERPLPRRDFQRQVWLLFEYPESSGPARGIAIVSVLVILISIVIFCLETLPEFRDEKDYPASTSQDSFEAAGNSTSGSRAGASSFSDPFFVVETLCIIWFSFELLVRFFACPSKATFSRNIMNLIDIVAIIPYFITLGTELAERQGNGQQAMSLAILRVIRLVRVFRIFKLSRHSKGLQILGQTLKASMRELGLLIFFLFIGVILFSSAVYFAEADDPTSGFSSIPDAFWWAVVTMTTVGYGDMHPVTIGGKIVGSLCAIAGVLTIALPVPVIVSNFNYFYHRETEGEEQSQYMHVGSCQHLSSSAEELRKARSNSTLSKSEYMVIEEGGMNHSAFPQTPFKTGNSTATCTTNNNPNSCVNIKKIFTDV

SMILES	IC50
COc1ccccc1C(=O)NCC1(c2cccs2)CCOC1 (centres unmarked) [Compound 14]	1.03 ± 0.03 µM
COc1ccc(F)cc1C(=O)NCC1(c2ccccc2)CCOCC1 [Compound 37]	1.97 µM
COc1ccccc1C(=O)NCC1(c2cccs2)CCOCC1 [Compound 43]	1.2 ± 0.02 µM
COc1ccccc1C(=O)NCC1(c2ccsc2)CCOCC1 [Compound 44]	1.99 ± 0.61 µM

biological target: KV1.1 (Rattus norvegicus, UniProt P10499); experiment: Selectivity, HiClamp Xenopus laevis heterologous expression system, KV1.1; assay type: cell-based; conditions: at a concentration of the compound's IC50 value for KV1.3
Sequence (P10499 whole entry): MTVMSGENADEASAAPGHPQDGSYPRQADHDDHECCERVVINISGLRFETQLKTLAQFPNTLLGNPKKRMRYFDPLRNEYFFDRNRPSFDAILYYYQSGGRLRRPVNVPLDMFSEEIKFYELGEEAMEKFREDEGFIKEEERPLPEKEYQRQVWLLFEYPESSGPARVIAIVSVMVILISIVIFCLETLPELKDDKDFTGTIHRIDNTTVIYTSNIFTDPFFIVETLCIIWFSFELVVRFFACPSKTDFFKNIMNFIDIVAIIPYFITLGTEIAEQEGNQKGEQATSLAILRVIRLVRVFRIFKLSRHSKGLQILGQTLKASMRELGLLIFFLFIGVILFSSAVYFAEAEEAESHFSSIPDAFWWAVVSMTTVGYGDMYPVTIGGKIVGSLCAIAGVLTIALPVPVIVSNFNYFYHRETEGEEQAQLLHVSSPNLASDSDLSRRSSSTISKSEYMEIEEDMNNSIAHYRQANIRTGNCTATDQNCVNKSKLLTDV
Procedure: as §2, with “theophylline. After ex vivo translation, the ion channels were correctly inserted in the cell membrane of the oocytes.” for “theophylline.”
Two-electrode voltage-clamp recordings were performed at room temperature (18–22 °C) using a Geneclamp 500 amplifier (Molecular Devices, San Jose, CA, USA) and pClamp data acquisition (Axon Instruments, Union City, CA, USA) and using an integrated digital TEVC amplifier controlled by HiClamp, an automated Voltage-Clamp Screening System (Multi Channel Systems MCS GmbH, Reutlingen, Germany). Whole-cell currents from oocytes were recorded 1–4 days after injection. The bath solution composition was ND96 (in mM): NaCl, 96; KCl, 2; CaCl2, 1.8; MgCl2, 2 and HEPES, 5 (pH 7.5). Voltage and current electrodes were filled with a 3 M solution of KCl in H2O. Resistances of both electrodes were kept between 0.5 and 1.5 MΩ. The elicited Kv1.x, Kv2.1, Kv4.2 and Kv10.1 currents were filtered at 0.5 kHz and sampled at 2 kHz using a four-pole low-pass Bessel filter. Leak subtraction was performed using a P/4 protocol.
as §4
All electrophysiological data (Figure S1) are presented as means ± S.E.M of n ≥ three independent experiments unless otherwise indicated. All data were analyzed using pClamp Clampfit 10.4 (Molecular Devices, Downingtown, PA, USA), OriginPro 9 (Originlab, Northampton, MA, USA), GraphPad Prism 8 software (GraphPad Software, Inc., San Diego, CA, USA) and DataMining (Multi Channel Systems MCS GmbH, Reutlingen, Germany). The Dunnett test and one-way ANOVA were performed to calculate the significance of the induced inhibition compared to the control.

SMILES	Effect on KV1.1 channel
COc1ccccc1C(=O)NCC1(c2cccs2)CCOC1 (centres unmarked) [Compound 14]	significant effects
COc1ccc(F)cc1C(=O)NCC1(c2ccccc2)CCOCC1 [Compound 37]	significantly inhibited
COc1ccccc1C(=O)NCC1(c2cccs2)CCOCC1 [Compound 43]	significant effects
COc1ccccc1C(=O)NCC1(c2ccsc2)CCOCC1 [Compound 44]	no significant effects

biological target: T1, KV1.3; experiment: KV1.3 inhibition, manual voltage-clamp on Xenopus laevis oocytes; assay type: cell-based; conditions: 10 μM; manual voltage-clamp on Xenopus laevis oocytes
Procedure: as §1, §2, §3, §4, §5

SMILES	inhibition at 10 µM
COc1ccccc1C(=O)NCC1(c2cccs2)CCOC1 (centres unmarked) [Compound 14]	92 ± 4%
COc1ccc(F)cc1C(=O)NCC1(c2ccccc2)CCOCC1 [Compound 37]	94 ± 1%
COc1ccccc1C(=O)NCC1(c2cccs2)CCOCC1 [Compound 43]	92 ± 1%
COc1ccccc1C(=O)NCC1(c2ccsc2)CCOCC1 [Compound 44]	96 ± 1%

same assay, conditions: KV1.3; manual voltage-clamp, Xenopus laevis oocytes

SMILES	IC50
COc1ccccc1C(=O)NCC1(c2cccs2)CCOC1 (centres unmarked) [Compound 14]	0.57 µM
COc1ccc(F)cc1C(=O)NCC1(c2ccccc2)CCOCC1 [Compound 37]	3.96 ± 0.47 µM
COc1ccccc1C(=O)NCC1(c2cccs2)CCOCC1 [Compound 43]	0.59 µM
COc1ccccc1C(=O)NCC1(c2ccsc2)CCOCC1 [Compound 44]	0.47 µM

system: Panc-1 tumor spheroids; experiment: Apoptosis (caspase 3/7 activity) in Panc-1 tumor spheroids; assay type: cell-based; conditions: with 8.9 µM cycloheximide
Procedure: Cell lines Panc-1 (ACC 783) and Colo-357 (CVCL_0221) were obtained through the validated collection of the pHioniC consortium (MSC-ITN 813834). Both cell lines were grown in RPMI1640, supplemented with 1 mM sodium pyruvate and 1% Glutamax (all Gibco Thermo-Fisher, Waltham, MA USA) 10%FBS (BioChrom, Berlin, Germany), at 5% CO2 and 37 °C in a humidified atmosphere.
Spheroids were cultured in round bottom ultra-low attachment 96-well plates (Corning). The optimal seeding densities were empirically determined (8000 cells/well for Colo-357 or 10,000 cells/well for Panc-1 spheroids. The cells were suspended in 2% Matrigel (Corning), centrifuged at 1000× g for 10 min and the spheroids were allowed to form in the incubator. Once the spheroids were formed, the treatments indicated together with 8.9 µM cycloheximide (as apoptosis sensitizer) were added and apoptosis was determined by live imaging in the Incucyte system in real time for approximately 60 h using Caspase-3/7 green reagent (Sartorius) as a reporter of apoptosis, which crosses the cell membrane and is cleaved by the activated Caspase-3/7, resulting in the fluorescent staining of nuclear DNA. Apoptosis on Panc-1 tumor spheroids is presented as integrated green fluorescence in the whole spheroid.

SMILES	Induction of apoptosis in Panc-1 spheroids
COc1ccccc1C(=O)NCC1(c2cccs2)CCOC1 (centres unmarked) [Compound 14]	did not induce detectable levels of apoptosis
COc1ccc(F)cc1C(=O)NCC1(c2ccccc2)CCOCC1 [Compound 37]	did not induce detectable levels of apoptosis
COc1ccccc1C(=O)NCC1(c2cccs2)CCOCC1 [Compound 43]	did not induce detectable levels of apoptosis
COc1ccccc1C(=O)NCC1(c2ccsc2)CCOCC1 [Compound 44]	did not induce detectable levels of apoptosis
